Experimental data as given in US20240294499A1, “TARGETED PROTEIN DEGRADATION USING BIFUNCTIONAL COMPOUNDS THAT BIND UBIQUITIN LIGASE AND TARGET MCL-1 PROTEIN” (Captor Therapeutics S.A., priority 2021, published 2024).

How the values were obtained:
[1] = test system: MV-4-11 cells; assay: Cell viability assay (CellTiter-Glo), MV-4-11; type: cell-based; settings: Homo sapiens, MV4-11, 24 hours incubation, 1% FBS, read-out: Average pIC50 by molecule MV-4-11 (converted)
From the text: (§1) The effect of various compounds of the invention on the viability of OPM-2, MV-4-11 and ARH-77 cell lines was investigated, using the CTG protocol described below.
(§2) OPM-2 and MV-4-11 cell lines are derived from multiple myeloma and acute myeloid leukaemia, respectively. Both cell lines are described in the literature as MCL-1 dependent lines, as opposed to lymphoblast-like ARH-77 cell line, which is described as independent of MCL-1 (Tron A E et al. Nat Commun. 2018; 9: 5341; Caenepeel S et al. Cancer Discov. 2018 December; 8(12):1582-1597).
(§3) Cells (OPM-2, MV-4-11 or ARH-77) were seeded on […] in a growth medium with FBS reduced to 1%. Next, compound stocks were pre-diluted in DMSO and added directly to the cells growth medium (final DMSO concentration: 0.5%). Compound concentrations used in this assay: 1/3 dilutions starting at 30 uM (9 to 12 points).
(§4) After 24 hours of incubation, cell viability was evaluated using CellTiter-Glo Luminescent Cell Viability Assay (Promega, cat #G7572). Luminescence signal was measured using a CLARIOstar Plus Multi-Mode Microplate Reader (574-590 nm).
(§5) Results were normalized to DMSO control.

[2] = biological target: [MCL-1]-[compound of formula (I)]-[CRBN/DDB1] complex (Homo sapiens, UniProt Q07820+Q96SW2); assay: AlphaLISA dose response ternary complex formation assay; type: binding; settings: read-out: AlphaLISA dose response Average pEC50 by molecule (converted)
Experimental: The effect of the bifunctional compounds of the invention on the formation of a ternary complex composed of [MCL-1]-[compound of formula (I)]-[CRBN/DDB1] was investigated with two methods: AlphaLISA dose response assay or HTRF ternary complex assay.
Two types of protein solution were prepared: • 40 nM biotinylated hMCL-1, 40 μg/ml AlphaScreen Streptavidin-coated Donor Beads in PBS buffer with 0.1% Tween-20 and 1 mM DTT, • 200 nM 6×His-CRBN/Strep-DDB1, 40 μg/ml AlphaLISA Anti-6×His Acceptor beads in PBS buffer with 0.1% Tween-20 and 1 mM DTT.
The prepared solutions were incubated at room temperature for 45 min and then the solution containing the donor beads was mixed with the solution containing the acceptor beads.
The tested compounds were dispensed onto a white 384-well AlphaPlate 384 SW. DMSO was backfilled to all wells, resulting in a final DMSO content of 2%. Wells containing only DMSO served as background. Next, 10 μl of solution with donor and acceptor beads was added to the wells.
The plate was sealed with transparent film and shaken using a VibroTurbulator for 60 see at room temperature, level 3. The plate was then spun down shortly (10 s, 1000 rcf, room temperature) and incubated at 25° C. for 30 min.
The read-out was performed with PerkinElmer Enspire Multimode Plate Reader (method for AlphaLISA 384-well low volume, Filterset: λexc=680 nm, λem=615 nm).
The results were analyzed as follows: • 1) an average of luminescence for background signal was calculated and used as a negative control; • 2) average of the maximum measured luminescence for 233 was calculated and used as an internal positive control; • 3) raw luminescence values were normalized against positive and negative controls; • 4) concentration points above the hook point were excluded; • 5) EC50 and pEC50 values were determined.

[3] = test system: ARH-77 cells; assay: Cell viability assay (CellTiter-Glo), ARH-77; type: cell-based; settings: Homo sapiens, ARH-77, 24 hours incubation, 1% FBS, read-out: Average pIC50 by molecule ARH-77 (converted)
From the text: as §1, §2, §3, §4, §5

Sequence of [MCL-1]-[compound of formula (I)]-[CRBN/DDB1] complex (Q07820 whole entry): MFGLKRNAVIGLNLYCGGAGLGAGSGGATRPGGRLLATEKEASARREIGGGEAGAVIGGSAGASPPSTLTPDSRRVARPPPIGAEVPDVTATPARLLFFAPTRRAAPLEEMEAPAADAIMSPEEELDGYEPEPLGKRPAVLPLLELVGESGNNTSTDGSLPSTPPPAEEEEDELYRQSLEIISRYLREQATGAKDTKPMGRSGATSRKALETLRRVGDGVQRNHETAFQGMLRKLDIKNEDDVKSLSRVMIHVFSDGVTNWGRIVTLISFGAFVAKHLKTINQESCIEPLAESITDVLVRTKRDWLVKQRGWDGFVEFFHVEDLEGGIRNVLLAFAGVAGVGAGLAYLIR
Sequence of [MCL-1]-[compound of formula (I)]-[CRBN/DDB1] complex (Q96SW2 whole entry): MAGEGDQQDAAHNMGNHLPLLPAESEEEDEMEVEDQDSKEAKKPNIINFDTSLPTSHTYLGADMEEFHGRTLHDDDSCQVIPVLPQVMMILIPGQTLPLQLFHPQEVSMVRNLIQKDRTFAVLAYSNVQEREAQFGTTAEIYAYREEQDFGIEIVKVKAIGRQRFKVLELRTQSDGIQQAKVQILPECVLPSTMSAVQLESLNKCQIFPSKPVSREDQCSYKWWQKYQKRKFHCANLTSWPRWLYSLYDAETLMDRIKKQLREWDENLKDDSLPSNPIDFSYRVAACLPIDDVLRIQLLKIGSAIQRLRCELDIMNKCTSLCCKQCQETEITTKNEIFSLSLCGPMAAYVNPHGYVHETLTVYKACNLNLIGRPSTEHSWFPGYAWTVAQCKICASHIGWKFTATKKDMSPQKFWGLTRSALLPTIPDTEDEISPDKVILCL
Sequence of [MCL-1]-[compound of formula (I)]-[CRBN/DDB1] complex (Q16531 whole entry partner): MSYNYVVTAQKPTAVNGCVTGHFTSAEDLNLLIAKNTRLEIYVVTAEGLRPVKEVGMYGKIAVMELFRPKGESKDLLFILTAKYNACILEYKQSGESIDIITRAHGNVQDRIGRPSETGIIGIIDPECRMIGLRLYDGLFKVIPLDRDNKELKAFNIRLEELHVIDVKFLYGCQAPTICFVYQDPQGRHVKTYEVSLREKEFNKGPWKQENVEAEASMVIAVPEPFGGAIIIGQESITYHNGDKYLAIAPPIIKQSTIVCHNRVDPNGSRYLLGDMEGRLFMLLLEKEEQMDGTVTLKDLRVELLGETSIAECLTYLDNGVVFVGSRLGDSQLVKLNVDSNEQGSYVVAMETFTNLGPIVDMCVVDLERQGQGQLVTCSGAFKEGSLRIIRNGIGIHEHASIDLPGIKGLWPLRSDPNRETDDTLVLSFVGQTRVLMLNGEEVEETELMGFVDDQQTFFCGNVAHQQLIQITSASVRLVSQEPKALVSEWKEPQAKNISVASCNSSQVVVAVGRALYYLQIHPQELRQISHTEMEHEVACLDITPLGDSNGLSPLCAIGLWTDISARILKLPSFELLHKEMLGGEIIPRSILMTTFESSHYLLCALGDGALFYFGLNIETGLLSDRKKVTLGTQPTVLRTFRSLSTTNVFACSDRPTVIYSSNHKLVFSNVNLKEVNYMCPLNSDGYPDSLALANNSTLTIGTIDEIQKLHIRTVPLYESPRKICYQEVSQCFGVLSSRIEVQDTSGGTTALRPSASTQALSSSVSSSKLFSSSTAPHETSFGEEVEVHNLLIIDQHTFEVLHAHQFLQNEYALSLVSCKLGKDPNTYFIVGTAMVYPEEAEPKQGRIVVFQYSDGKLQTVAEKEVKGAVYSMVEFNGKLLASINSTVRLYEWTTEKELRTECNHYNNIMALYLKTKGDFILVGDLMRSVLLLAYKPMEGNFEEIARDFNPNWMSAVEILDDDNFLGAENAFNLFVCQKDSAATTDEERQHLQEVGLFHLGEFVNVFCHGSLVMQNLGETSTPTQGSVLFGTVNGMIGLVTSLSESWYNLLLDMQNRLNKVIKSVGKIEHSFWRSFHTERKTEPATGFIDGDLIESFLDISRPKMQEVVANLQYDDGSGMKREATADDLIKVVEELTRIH

SMILES | IC50 [1] [nM] | EC50 [2] [nM] | IC50 [3] [nM]
Cc1nn2c(c1-c1c(F)ccc3c(CCCOc4cccc5cc(F)ccc45)c(C(=O)O)n(CCN4CCN(C(=O)COc5cccc6c5CN(C5CCC(=O)NC5=O)C6=O)CC4)c13)COCC2 (stereo not drawn) [Compound 226, 1-{2-[4-(2-{[2-(2,6-dioxopiperidin-3-yl)-1-oxo-2,3-dihydro-1H-isoindol-4-yl]oxy}acetyl)piperazin-1-yl]ethyl}-6-fluoro-3-{3-[(6-fluoronaphthalen-1-yl)oxy]propyl}-7-{2-methyl-4H,6H,7H-pyrazolo[3,2-c][1,4]oxazin-3-yl}-1H-indole-2-carboxylic acid] | ≤ 100 | < 100 | > 10000
Cc1nn2c(c1-c1c(F)ccc3c(CCCOc4cccc5cc(F)ccc45)c(C(=O)O)n(CCN4CCN(C(=O)COc5cccc6c5CN(C5CCC(=O)NC5=O)C6=O)CC4)c13)CCC2 (stereo not drawn) [Compound 225, 1-(2-(4-(2-((2-(2,6-dioxopiperidin-3-yl)-1-oxoisoindolin-4-yl)oxy)acetyl)piperazin-1-yl)ethyl)-6-fluoro-3-(3-((6-fluoronaphthalen-1-yl)oxy)propyl)-7-(2-methyl-5,6-dihydro-4H-pyrrolo[1,2-b]pyrazol-3-yl)-1H-indole-2-carboxylic acid] | ≤ 316 | < 100 | > 10000
Cc1nn(C)c(C)c1-c1c(Cl)ccc2c(CCCOc3cccc4ccccc34)c(C(=O)O)n(CC[N+]3([O-])CCN(C(=O)COc4cccc5c4CN(C4CCC(=O)NC4=O)C5=O)CC3)c12 (stereo not drawn) [Compound 224, 1-(2-(2-carboxy-6-chloro-3-(3-(naphthalen-1-yloxy)propyl)-7-(1,3,5-trimethyl-1H-pyrazol-4-yl)-1H-indol-1-yl)ethyl)-4-(2-((2-(2,6-dioxopiperidin-3-yl)-1-oxoisoindolin-4-yl)oxy)acetyl)piperazine 1-oxide] | ≤ 316 | < 100 | > 10000
Cc1cc(OCCCc2c(C(=O)O)n(CCN3CCN(C(=O)CCOCCOCCOCCOCCOCCOCCNc4cccc5c4C(=O)N(C4CCC(=O)NC4=O)C5=O)CC3)c3c(-c4c(C)nn(C)c4C)c(Cl)ccc23)cc(C)c1Cl (stereo not drawn) [Compound 203, 6-chloro-3-[3-(4-chloro-3,5-dimethylphenoxy)propyl]-1-{2-(4-(1-{(2-(2,6-dioxopiperidin-3-yl)-1,3-dioxo-2,3-dihydro-1H-isoindol-4-yl]amino}-3,6,9,12,15,18-hexaoxahenicosanoyl)piperazin-1-yl]ethyl}-7-(1,3,5-trimethyl-1H-pyrazol-4-yl)-1H-indole-2-carboxylic acid] | ≤ 1000 | < 100 | 
Cc1c2c(nn1C)CSCc1cc(n(C)n1)CSc1cc(c3ccccc3c1)OCCCc1c(C(=O)NS(=O)(=O)CCNC(=O)CCOCCOCCNc3cccc4c3C(=O)N(C3CCC(=O)NC3=O)C4=O)n(C)c3c-2c(Cl)ccc13 (stereo not drawn) [Compound 261, N-{2-[({17-chloro-5,13,14,22-tetramethyl-28-oxa-2,9-dithia-5,6,12,13,22-pentaazaheptacyclo[27.7.1.1^4,^7.0^11,^15.0,^16,^21.0^20,^24.0^30,^35]octatriaconta-1(37),4(38),6,11,14,16,18,20,23,29,31,33,35-tridecaen-23-yl}formamido)sulfonyl]ethyl}-3-[2-(2-{[2-(2,6-dioxopiperidin-3-yl)-1,3-dioxo-2,3-dihydro-1H-isoindol-4-yl]amino}ethoxy)ethoxy]propanamide] |  | < 1000 | 

Second part, led by results:

IC50 [1] [nM] | EC50 [2] [nM] | SMILES | IC50 [3] [nM]
≤ 100 | < 10 | Cc1nn(C)c(C)c1-c1c(Cl)ccc2c(CCCOc3cccc4cc(F)ccc34)c(C(=O)O)n(CCCCNC(=O)CNc3cccc4c3C(=O)N(C3CCC(=O)NC3=O)C4=O)c12 (stereo not drawn) [Compound 325, 6-Chloro-1-[4-(2-{[2-(2,6-dioxopiperidin-3-yl)-1,3-dioxo-2,3-dihydro-1H-isoindol-4-yl]amino}acetamido)butyl]-3-{3-[(6-fluoronaphthalen-1-yl)oxy]propyl}-7-(1,3,5-trimethyl-1H-pyrazol-4-yl)-1H-indole-2-carboxylic acid] | > 10000
≤ 100 | < 10 | Cc1cc(C(=O)NC2CCC(=O)NC2=O)c2nc(C)n(CC(=O)N3CCN(CCn4c(C(=O)O)c(CCCOc5cccc6cc(F)ccc56)c5ccc(Cl)c(-c6c(C)nn(C)c6C)c54)CC3)c2c1 (stereo not drawn) [Compound 274, 6-Chloro-1-(2-(4-(2-(4-((2,6-dioxopiperidin-3-yl)carbamoyl)-2,6-dimethyl-1H-benzo[d]imidazol-1-yl)acetyl)piperazin-1-yl)ethyl)-3-(3-((6-fluoronaphthalen-1-yl)oxy)propyl)-7-(1,3,5-trimethyl-1H-pyrazol-4-yl)-1H-indole-2-carboxylic acid] | > 10000
≤ 100 |  | Cc1nn(C)c(C)c1-c1c(Cl)ccc2c(CCCOc3cccc4cc(F)ccc34)c(C(=O)O)n(CCN3CCN(C(=O)[C@H](C)Oc4cccc5c4C(=O)N([C@@H]4CCC(=O)NC4=O)C5=O)CC3)c12 (single isomer, unassigned) [Compound 320] | > 10000
≤ 316 | < 100 | Cc1nn(C)c(C)c1-c1c(Cl)ccc2c(CCCOc3cccc4cc(F)ccc34)c(C(=O)O)n(CCCOCCOc3cccc4c3CN(C3CCC(=O)NC3=O)C4=O)c12 (stereo not drawn) [Compound 329, 6-Chloro-1-[3-(2-{[2-(2,6-dioxopiperidin-3-yl)-1-oxo-2,3-dihydro-1H-isoindol-4-yl]oxy}ethoxy)propyl]-3-{3-[(6-fluoronaphthalen-1-yl)oxy]propyl}-7-(1,3,5-trimethyl-1H-pyrazol-4-yl)-1H-indole-2-carboxylic acid] | > 10000
≤ 100 | < 100 | Cc1nc2c(NCC(=O)N3CCN(CCn4c(C(=O)O)c(CCCOc5cccc6cc(F)ccc56)c5ccc(Cl)c(-c6c(C)nn(C)c6C)c54)CC3)cccc2cc1C1CCC(=O)NC1=O (stereo not drawn) [Compound 284, 6-Chloro-1-{2-[4-(2-{[3-(2,6-dioxopiperidin-3-yl)-2-methylquinolin-8-yl]amino}acetyl)piperazin-1-yl]ethyl}-3-{3-[(6-fluoronaphthalen-1-yl)oxy]propyl}-7-(1,3,5-trimethyl-1H-pyrazol-4-yl)-1H-indole-2-carboxylic acid] | > 3160
≤ 316 | < 10 | Cc1nn2c(c1-c1c(F)ccc3c(CCCOc4cccc5cc(F)ccc45)c(C(=O)O)n(CCN4CCN(C(=O)COc5cccc6c5CN(C5CCC(=O)NC5=O)C6=O)CC4)c13)OCC2 (stereo not drawn) [Compound 351, 1-{2-[4-(2-{[2-(2,6-dioxopiperidin-3-yl)-1-oxo-2,3-dihydro-1H-isoindol-4-yl]oxy}acetyl)piperazin-1-yl]ethyl}-6-fluoro-3-{3-[(6-fluoronaphthalen-1-yl)oxy]propyl}-7-{6-methyl-2H,3H-pyrazolo[3,2-b][1,3]oxazol-7-yl}-1H-indole-2-carboxylic acid] | > 31600
≤ 1000 |  | Cc1nc2cccc(NCC(=O)N3CCN(CCn4c(C(=O)O)c(CCCOc5cccc6cc(F)ccc56)c5ccc(Cl)c(-c6c(C)nn(C)c6C)c54)CC3)c2cc1C1CCC(=O)NC1=O (stereo not drawn) [Compound 287, 6-Chloro-1-{2-[4-(2-{[3-(2,6-dioxopiperidin-3-yl)-2-methylquinolin-5-yl]amino}acetyl)piperazin-1-yl]ethyl}-3-{3-[(6-fluoronaphthalen-1-yl)oxy]propyl}-7-(1,3,5-trimethyl-1H-pyrazol-4-yl)-1H-indole-2-carboxylic acid] | > 3160
≤ 100 |  | Cc1nn(C)c(C)c1-c1c(Cl)ccc2c(CCCOc3cccc4cc(F)ccc34)c(C(=O)O)n(CCN3CCN(C(=O)COc4cccc5c4CN([C@@H]4CCC(=O)NC4=O)C5=O)CC3)c12 [Compound 297, (R)-6-Chloro-1-(2-(4-(2-((2-(2,6-dioxopiperidin-3-yl)-1-oxoisoindolin-4-yl)oxy)acetyl)piperazin-1-yl)ethyl)-3-(3-((6-fluoronaphthalen-1-yl)oxy)propyl)-7-(1,3,5-trimethyl-1H-pyrazol-4-yl)-1H-indole-2-carboxylic acid] | > 10000
